# Laboratory results from patent US7897741B2, “Cell cycle phase markers” (GE Healthcare UK Limited, priority 2004, dated 2011).
# Key:
# Type in all cases: cell-based, human
# [1] = tested on: U2OS stable cells expressing the pCORON1002-EGFP-C1-PSLD construct; assay: Chemical cell cycle block studies on EGFP-PSLD stable cell line (IN Cell Analyzer imaging); settings: for % G1: % of cells per field of view in G1-phase; for % G2: % of cells per field of view in G2-phase; for % S: % of cells per field of view in S-phase; for Total cells: total number of cells per field of view
# Protocol: Stable cells expressing the pCORON1002-EGFP-C1-PSLD construct, were seeded at 0.3×10^5/ml in 96-well Greiner plates using antibiotic-free medium (100 μl/well) and incubate for 16 hours.
# For chemical block studies (Table 1), stable cells were exposed to olomoucine, roscovitine, nocodazole, mimosine, colcemid or colchicine (Sigma). Cells were fixed in 2% formalin and nuclei stained with hoechst (2 μM).
# After high throughput imaging and analysis on the IN Cell Analyzer system (GEHC), data for average nuclear intensity and N:C ratio (EGFP signal), nuclear size (hoescht signal) and, where appropriate, nuclear signal intensity (BrdU) were obtained for the total number of individual cells in a field of view using hoescht as a nuclear mask and the IN Cell Analyzer 3000 cell cycle phase marker algorithm (GEHC). For each well, the total number of cells per field of view were catagorised into G1-phase (predominantly nuclear EGFP distribution; high EGFP-PSLD nuclear intensity and N:C ratio), S-phase (nuclear BrdU signal >3SDs above background; EGFP-PSLD N:C ratio around 1) and G2-phase (large nuclear size; low EGFP-PSLD N:C ratio).
# [2] = tested on: CRM1-mediated nuclear export; assay: Block of nuclear protein export: localization of GFP-HDHB and FLAG-HDHB in U2OS cells with LMB; settings: in the presence of LMB (10 ng/ml, 3 h, with 10 μM cycloheximide); asynchronous, G1 and S phase U2OS cells
# Protocol: Cell cycle synchronization was verified by flow cytometry as described previously (Taneja et al., J. Biol. Chem., (2002) 277, 40853-40861). In experiments to block nuclear protein export, cells were cultured for 3 h in DMEM containing 10 ng/ml of leptomycin B (LMB) and 10 μM cycloheximide (Calbiochem, San Diego, Calif.) to prevent new protein synthesis. Cells plated on glass coverslips were microinjected as described (Herbig et al., 1999) except that plasmid DNA rather than protein was injected.
# For indirect immunofluorescence staining, cells were washed three times with phosphate buffered saline (PBS), fixed with 3.7% formaldehyde in PBS for 20 min, permeabilized for 5 min in 0.2% Triton X-100, and incubated with 10% FBS in PBS for 45 min. FLAG-HDHB was detected with mouse monoclonal anti-FLAG antibody (Sigma-Aldrich), 1:100 in PBS plus 10% FBS for 2 h at room temperature. After washing, cells were incubated with Texas Red-conjugated goat anti-mouse secondary antibody (Jackson ImmunoResearch Laboratories, West Grove, Pa.) at 1:100 in PBS plus 10% FBS for 1 h at room temperature. […] The subcellular distribution of each protein was quantitatively evaluated in at least two independent experiments.
# For GFP fluorescence, cells were washed three times with phosphate-buffered saline (PBS), fixed with 3.7% formaldehyde containing 2 μM Hoechst 33258 for 20 min and imaged and evaluated as above.
# [3] = tested on: EGFP-PSLD stable cell lines (U2OS); assay: Kinetic imaging (24 hours) of EGFP-PSLD stable cell lines treated with olomoucine; settings: cells arrested in G2, without passing through mitosis; kinetic imaging over 24 hours
# Protocol: Where appropriate, for high throughput imaging, kinetic imaging (24 hr) and analysis in multiwell plate format of stable cell lines flourescence microscopy was conducted using a high throughput confocal imaging system (IN Cell Analyzer 1000 or IN Cell Analyzer 3000, GE Healthcare, Amersham, UK) on cells transfected with pCORON1002-EGFP-C1-PSLD, pCORON1002-EGFP-C1-βGal-PSLD or redFP derivatives of these vectors. Images were analysed using the cell cycle phase marker algorithm (GE Health Care).
structure (smiles),measurement,setting,value
CN[C@H]1CCc2cc(OC)c(OC)c(OC)c2-c2ccc(OC)c(=O)cc21 [Colcemid],% G1,[1]; 0.3 μM,16%
same,% G2,[1]; 0.3 μM,43%
same,% S,[1]; 0.3 μM,41%
same,Total cells,[1]; 0.3 μM,490
same,% G1,[1]; 1.2 μM,8%
same,% G2,[1]; 1.2 μM,59%
same,% S,[1]; 1.2 μM,32%
same,Total cells,[1]; 1.2 μM,450
COc1cc2c(c(OC)c1OC)-c1ccc(OC)c(=O)cc1[C@@H](NC(C)=O)CC2 [Colchicine],% G1,[1]; 4 μM,9%
same,% G2,[1]; 4 μM,55%
same,% S,[1]; 4 μM,36%
same,Total cells,[1]; 4 μM,467
same,% G1,[1]; 100 μM,12%
same,% G2,[1]; 100 μM,57%
same,% S,[1]; 100 μM,32%
same,Total cells,[1]; 100 μM,439
N[C@@H](Cn1ccc(=O)c(O)c1)C(=O)O [L-mimosine],% G1,[1]; 2 mM,6%
same,% G2,[1]; 2 mM,26%
same,% S,[1]; 2 mM,68%
same,Total cells,[1]; 2 mM,1710
"CCC(=C/[C@H](C)C/C=C/C(C)=C/[C@@H](C)C(=O)[C@@H](C)[C@H](O)[C@@H](C)C/C(C)=C/C(=O)O)/C=C/[C@@H]1OC(=O)C=C[C@@H]1C [LMB, Leptomycin B]",Localization of GFP-HDHB and FLAG-HDHB fusion proteins,[2],accumulated in the nucleus independently of the cell cycle
COC(=O)Nc1nc2ccc(C(=O)c3cccs3)cc2[nH]1 [Nocodazole],% G1,[1]; 3 μM,6%
same,% G2,[1]; 3 μM,61%
same,% S,[1]; 3 μM,33%
same,Total cells,[1]; 3 μM,606
Cn1cnc2c(NCc3ccccc3)nc(NCCO)nc21 [Olomoucine],% G1,[1]; 500 μM,63%
same,% G2,[1]; 500 μM,4%
same,% S,[1]; 500 μM,33%
same,Total cells,[1]; 500 μM,600
same,Time for EGFP-PSLD signal to redistribute from the cytoplasm to the nucleus,[3],4 to 8 h
CC[C@H](CO)Nc1nc(NCc2ccccc2)c2ncn(C(C)C)c2n1 [Roscovitin],% G1,[1]; 100 μM,52%
same,% G2,[1]; 100 μM,13%
same,% S,[1]; 100 μM,36%
same,Total cells,[1]; 100 μM,693
same,EGFP-PSLD distribution and cell cycle arrest,"[1]; EGFP-PSLD stable cell lines, refers to Table 1",predominantly nuclear distribution of EGFP-PSLD and arrest in G1
